This is an account of results in patent US10144737B2 (ETERNITY BIOSCIENCE INC., priority 2014, dated 2018).

The term IC50 denotes the midpoint of a concentration-inhibition curve. A low value points to inhibition by little substance. Usually GI50 stands for the concentration that inhibits growth by half.

One experiment deals with T1, Btk (Homo sapiens, UniProt Q06187).
T1 construct: purchased Promega (Madison, Wis.)
Kind of experiment: Btk kinase assay (ADP-Glo). The format is biochemical. The settings on record: ADP-Glo Btk kinase assay kit; ATP 1.2 μM; 60 minutes at room temperature. On the procedure: Btk kinase assay—The Btk kinase assay was performed using a ADP-Glo Btk kinase assay kit purchased from Promega (Madison, Wis.). The assay was conducted according to the protocols provided in the assay kit. In brief, the enzyme reaction was carried out in the kinase reaction buffer containing Btk (2 ng/μl), ATP (1.2 μM), poly GT peptide (0.3 μM), DTT (40 nM), MnCl2 (1.4 mM), and 1 xkinase buffer (included in the kit) in the presence or absence of the tested articles at various concentrations in 384-well plate at room temperature (22±1° C.) for 60 minutes. The final reaction volume for each reaction was 10 μl. Then, 4 μl of ADP-Glo reagent (included in the kit) was added into the reaction and the plate was further incubated for another 40 minutes to terminate the reaction and deplete the remaining ATP. Finally, 10 μl of the kinase detection reagent was added into each reaction to simultaneously convert ADP to ATP and allow the newly synthesized ATP to be measured by a plate-reading luminometer (Victor X5 2030 multilabel reader, PerkinElmer). IC50 value was calculated using appropriate programs in GraphPad Prism by plotting the logarithm of the concentration versus percent inhibition as compared with a vehicle (DMSO) control.
(ADP-Glo first removes unused ATP, then detects ADP through luciferase.)

A further experiment relates to TMD-8 cells. The experiment can be described thus: Cell proliferation assay (CellTiter-Glo), TMD-8 cells. The format is cell-based. The settings on record: Homo sapiens, TMD8, 120 h, 5-day treatment, read-out: TMD8 cell growth (GI50 μM). As for the experimental part:
Cell proliferation assay: TMD-8 and SU-DHL-1 cells were maintained at 37° C. in a humidified atmosphere with 5% CO2 in the recommended medium and serum concentrations. For cell proliferation assay, cells were seeded in 96-well pates at a density of 5,000 to 10,000 cells per well and cultured overnight at 37° C. in recommended medium supplemented with 5-10% FBS. On the next day, the test articles at various concentrations or vehicle control (0.5% DMSO) were added into cell culture. After 5-day treatment, the growth of cells was assayed by the CellTiter-Glo® Luminestceaent Cell Viability Assay (Promega). IC50 values were calculated using GraphPad Prism by plotting the logarithm of the concentration versus percent inhibition of cell growth as compared with the vehicle control.
For orientation: In ATP-based viability assays light output follows the ATP content of the culture.

T1 sequence (Q06187 whole entry): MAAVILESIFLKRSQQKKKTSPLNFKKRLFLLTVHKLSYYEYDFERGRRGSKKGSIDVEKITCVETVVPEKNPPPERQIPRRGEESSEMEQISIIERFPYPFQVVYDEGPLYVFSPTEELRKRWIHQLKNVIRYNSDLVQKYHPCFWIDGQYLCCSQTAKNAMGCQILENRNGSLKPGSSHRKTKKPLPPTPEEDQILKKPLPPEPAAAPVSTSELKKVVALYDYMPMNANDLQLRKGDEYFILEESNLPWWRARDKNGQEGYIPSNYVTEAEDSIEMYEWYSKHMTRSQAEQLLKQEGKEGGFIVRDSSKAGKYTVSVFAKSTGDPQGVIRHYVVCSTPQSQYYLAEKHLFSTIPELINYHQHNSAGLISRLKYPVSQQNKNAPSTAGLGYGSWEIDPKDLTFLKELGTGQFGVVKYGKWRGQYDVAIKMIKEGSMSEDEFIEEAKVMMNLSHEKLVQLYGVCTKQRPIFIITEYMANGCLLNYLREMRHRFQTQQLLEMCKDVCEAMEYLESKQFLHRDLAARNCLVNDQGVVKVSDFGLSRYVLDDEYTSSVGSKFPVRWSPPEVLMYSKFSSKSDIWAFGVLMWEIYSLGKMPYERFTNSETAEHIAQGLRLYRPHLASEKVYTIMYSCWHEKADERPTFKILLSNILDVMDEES

The compound `C=CC(=O)N1CC[C@@H](Nc2ncnc3[nH]c(C#CCOc4ccccc4OC)cc23)C1` [Example 45, (R)-1-(3-((6-(3-(2-methoxyphenoxy)prop-1-yn-1-yl)-7H-pyrrolo[2,3-d]pyrimidin-4-yl)amino)pyrrolidin-1-yl)prop-2-en-1-one] displayed an IC50 against Btk of 1.1 nM. In the experiment with TMD-8 cells, the concentration for 50% growth inhibition (GI50) stood at 0.0014 µM. For the compound `C=CC(=O)N1CC[C@@H](Nc2ncnc3[nH]c(C#Cc4ccc5sccc5c4)cc23)C1` [Example 73, (R)-1-(3-((6-(benzo[b]thiophen-5-ylethynyl)-7H-pyrrolo[2,3-d]pyrimidin-4-yl)amino)pyrrolidin-1-yl)prop-2-en-1-one], half-maximal inhibition against Btk (IC50) was put at 0.1 nM. Further, in the experiment with TMD-8 cells, the concentration for 50% growth inhibition (GI50) came to 0.001 µM.

Regarding `C=CC(=O)N1CC[C@@H](Nc2ncnc3[nH]c(C#Cc4cccc(OC(F)(F)F)c4)cc23)C1` [Example 65, (R)-1-(3-((6-((3-trifluoromethoxyphenyl)ethynyl)-7H-pyrrolo[2,3-d]pyrimidin-4-yl)amino)pyrrolidin-1-yl)prop-2-en-1-one], at Btk, the IC50 turned out to be 173 nM. Further, the GI50 in the experiment with TMD-8 cells was found to be 0.0027 µM.

Compound `C=CC(=O)Nc1cccc(Nc2ncnc3[nH]c(C#Cc4ccsc4)cc23)c1` [Example 104, N-(3-((6-(thiophen-3-ylethynyl)-7H-pyrrolo[2,3-d]pyrimidin-4-yl)amino)phenyl)acrylamide] returned a concentration for half-maximal inhibition (IC50) at Btk of 6 nM. The GI50 with TMD-8 cells was determined as 0.017 µM. Compound `C=CC(=O)N1CC[C@@H](Nc2ncnc3[nH]c(C#CCOC4CCCCO4)cc23)C1` (stereo partly drawn) [Example 84, 1-((3R)-3-((6-(3-((tetrahydro-2H-pyran-2-yl)oxy)prop-1-yn-1-yl)-7H-pyrrolo[2,3-d]pyrimidin-4-yl)amino)pyrrolidin-1-yl)prop-2-en-1-one] showed an IC50 at Btk of 136 nM. Further, the GI50 in the experiment with TMD-8 cells was determined as 1.09 µM.

With `COc1ccc(OCC#Cc2nc3c(NC4CCN(C(=O)/C=C/CN(C)C)C4)ncnc3[nH]2)cc1` (stereo not drawn) [Example 30, (E)-1-(3-((8-(3-(4-methoxyphenoxy)prop-1-yn-1-yl)-9H-purin-6-yl)amino)pyrrolidin-1-yl)-4-(dimethylamino)but-2-en-1-one], at Btk, half-maximal inhibition (IC50) was put at 19 nM. Moreover, the 50% growth inhibitory concentration (GI50) in the experiment on TMD-8 cells was determined as 1.2 µM. For `C=CC(=O)N1CCC(Nc2ncnc3[nH]c(C#CCOc4ccccc4Cl)nc23)C1` (stereo not drawn) [Example 18, 1-(3-((8-(3-(2-chlorophenoxy)prop-1-yn-1-yl)-9H-purin-6-yl)amino)pyrrolidin-1-yl)prop-2-en-1-one], the IC50 at Btk amounted to 0.02 nM. In the experiment with TMD-8 cells, the GI50 came out at 0.002 µM. Regarding `C=CC(=O)N1CC[C@@H](Nc2ncnc3[nH]c(C#CCOc4ccccc4OC(F)(F)F)cc23)C1` [Example 81, (R)-1-(3-((6-(3-(2-(trifluoromethoxy)phenoxy)prop-1-yn-1-yl)-7H-pyrrolo[2,3-d]pyrimidin-4-yl)amino)pyrrolidin-1-yl)prop-2-en-1-one], the IC50 on Btk is 33 nM. Also, in the experiment on TMD-8 cells, the 50% growth inhibitory concentration (GI50) turned out to be 0.003 µM. Take `C/C=C/C(=O)N1CC[C@@H](Nc2ncnc3[nH]c(C#CCOc4ccccc4F)cc23)C1` [Example 48, (R,E)-1-(3-((6-(3-(2-fluorophenoxy)prop-1-yn-1-yl)-7H-pyrrolo[2,3-d]pyrimidin-4-yl)amino)pyrrolidin-1-yl)but-2-en-1-one]: half-maximal inhibition at Btk (IC50) was put at 432 nM. The 50% growth inhibitory concentration (GI50) in the experiment on TMD-8 cells turned out to be 0.088 µM. On the same counts, the results for `C=CC(=O)N1CC[C@@H](Nc2ncnc3[nH]c(C#Cc4ccc5c(c4)OCO5)cc23)C1` [Example 72, (R)-1-(3-((6-(benzo[d][1,3]dioxol-5-ylethynyl)-7H-pyrrolo[2,3-d]pyrimidin-4-yl)amino)pyrrolidin-1-yl)prop-2-en-1-one] are 3.5 nM and 0.0007 µM. Consider `CN(C)C/C=C/C(=O)N1CCC(Nc2ncnc3[nH]c(C#CCOc4ccccc4)nc23)C1` (stereo not drawn) [Example 10, (E)-4-(dimethylamino)-1-(3-((8-(3-phenoxyprop-1-yn-1-yl)-9H-purin-6-yl)amino)pyrrolidin-1-yl)but-2-en-1-one], for which the IC50 against Btk was found to be 0.1 nM. Further, the GI50 with TMD-8 cells came out at 0.171 µM. On the same counts, the results for `CN(C)C/C=C/C(=O)N1CCC(Nc2ncnc3[nH]c(C#CCOc4ccccc4F)nc23)C1` (stereo not drawn) [Example 23, (E)-1-(3-((8-(3-(2-fluorophenoxy)prop-1-yn-1-yl)-9H-purin-6-yl)amino)pyrrolidin-1-yl)-4-(dimethylamino)but-2-en-1-one] are 1.5 nM and 0.107 µM. On the same counts, the results for `C=CC(=O)N1CC[C@@H](Nc2ncnc3[nH]c(C#Cc4ccsc4)cc23)C1` [Example 76, (R)-1-(3-((6-(thiophen-3-ylethynyl)-7H-pyrrolo[2,3-d]pyrimidin-4-yl)amino)pyrrolidin-1-yl)prop-2-en-1-one] are 1 nM and 0.0032 µM. The compound `C=CC(=O)N1CCC(Nc2ncnc3[nH]c(C#CCOc4ccc(F)cc4F)nc23)C1` (stereo not drawn) [Example 24, 1-(3-((8-(3-(2,4-difluorophenoxy)prop-1-yn-1-yl)-9H-purin-6-yl)amino)pyrrolidin-1-yl)prop-2-en-1-one] came in with an IC50 against Btk of 1 nM. Moreover, in the experiment with TMD-8 cells, the concentration for 50% growth inhibition (GI50) came out at 0.01 µM.

`CN(C)C/C=C/C(=O)N1CCC(Nc2ncnc3[nH]c(C#CCOc4ccccc4)cc23)C1` (stereo not drawn) [Example 34, (E)-4-(dimethylamino)-1-(3-((6-(3-phenoxyprop-1-yn-1-yl)-7H-pyrrolo[2,3-d]pyrimidin-4-yl)amino)pyrrolidin-1-yl)but-2-en-1-one] had an IC50 against Btk of 0.3 nM. Also, the 50% growth inhibitory concentration (GI50) with TMD-8 cells came to 0.107 µM. The matching figures for `C=CC(=O)N1CC[C@@H](Nc2ncnc3[nH]c(C#CCn4ncc5ccccc54)cc23)C1` [Example 86, (R)-1-(3-((6-(3-(1H-indazol-1-yl)prop-1-yn-1-yl)-7H-pyrrolo[2,3-d]pyrimidin-4-yl)amino)pyrrolidin-1-yl)prop-2-en-1-one]: 18 nM and 0.018 µM.

As to `C=CC(=O)N1CC[C@@H](Nc2ncnc3[nH]c(C#Cc4ccccc4Cl)cc23)C1` [Example 55, (R)-1-(3-((6-((2-chlorophenyl)ethynyl)-7H-pyrrolo[2,3-d]pyrimidin-4-yl)amino)pyrrolidin-1-yl)prop-2-en-1-one], the concentration for half-maximal inhibition (IC50) against Btk was determined as 174 nM. The GI50 in the experiment with TMD-8 cells stood at 0.195 µM.

In turn, `C=CC(=O)N1CC[C@@H](Nc2ncnc3[nH]c(C#CCOc4ccccc4OC)nc23)C1` [Example 102, (R)-1-(3-((8-(3-(2-methoxyphenoxy)prop-1-yn-1-yl)-9H-purin-6-yl)amino)pyrrolidin-1-yl)prop-2-en-1-one] came in with an IC50 at Btk of 0.2 nM. For the same compound, the 50% growth inhibitory concentration (GI50) in the experiment on TMD-8 cells is 0.004 µM. In the case of `CN(C)C/C=C/C(=O)N1CC[C@@H](Nc2ncnc3[nH]c(C#Cc4cccc(Cl)c4)cc23)C1` [Example 58, (R,E)-1-(3-((6-((3-chlorophenyl)ethynyl)-7H-pyrrolo[2,3-d]pyrimidin-4-yl)amino)pyrrolidin-1-yl)-4-(dimethylamino)but-2-en-1-one], the IC50 at Btk was found to be 0.4 nM. Besides, in the experiment on TMD-8 cells, the GI50 stood at 0.171 µM.

Turning to `O=C(/C=C/c1cccs1)N1CCC(Nc2ncnc3[nH]c(C#CCOc4ccccc4)cc23)C1` (stereo not drawn) [Example 37, (E)-1-(3-((6-(3-phenoxyprop-1-yn-1-yl)-7H-pyrrolo[2,3-d]pyrimidin-4-yl)amino)pyrrolidin-1-yl)-3-(thiophen-2-yl)prop-2-en-1-one], the 50% inhibitory concentration (IC50) on Btk was determined as 1180 nM.
